# Assay results reported in US20220386582A1, “METHOD AND DEVICE TO TRAP ACARIDS” (DOMOBIOS, priority 2015, published 2022).
# Columns and labels:
# Type in all cases: in vivo
# Acarus siro [1] = experiment: Toxicity, indirect contact (inhalation, 24 hours)
# Protocol: (§1) FIG. 10 is a set of graphs showing the percentage of dead mites after 24 hours of inhalation of lavandulol at different concentrations (0.18 μL, 3 μL or 8 μL of pure solution) or water (Ctrl). Four species of mites were tested: Dermatophagoides pteronyssinus (DP), Dermatophagoides farinae (DF), Tyrophagus putrescentiae (TP) and Acarus siro (AS).
# (§2) The species studied were two species of dust common in mattresses in Eurasia (Dermatophagoides pteronyssinus and Dermatophagoides farinae), and two species of stored food mites common in Eurasia (Tyrophagus putrescentiae and Acarus siro). These four species were reared under defined conditions (20° C. and 75% relative humidity). The house dust mites were fed with human flakes (skin and whiskers obtained by cleaning electric shavers) and stored food mites were fed with fish food. The experiments were performed at 20° C. and 40% relative humidity.
# (§3) For each of the four species, a group of a mites (10<n<25) was placed in a Petri dish (diameter 5.5 cm). This dish was then recovered by a filter paper that enabled gas-exchange and placed into another dish (diameter 9 cm), in which was placed a piece of paper filter (5×1 cm) impregnated with lavandulol at various concentration (0.18 μL, 3 μL, or 8 μL of pure solution, corresponding respectively to 0.15 mg, 2.5 mg or 6.67 mg of lavandulol), or with water. The bigger of the two dishes was then covered.
# (§4) After 24 hours, the number of dead mites were counted. The death of a mite was determined by reaction to a stimulation with a needle: lack of reaction and the persistence of immobility indicated death. This experiment was repeated three times with the four species.
# (§5) Observations and counting of mites were made under binocular microscope (magnification 10×). The set-up is illuminated with a cold lamp (KL 1500 LCD, Schott ●), the lighting is symmetric and the light intensity was 50Klux. The experimental conditions were controlled in the room (T° C.: 19-22° C. and RH 40%).
# Dermatophagoides farinae [2] = experiment: Toxicity, indirect contact (inhalation, 24 hours)
# Protocol: as §1, §2, §3, §4, §5
# [3] = test system: Dermatophagoides pteronyssinus; experiment: Toxicity, indirect contact (inhalation, 24 hours)
# Protocol: as §1, §2, §3, §4, §5
# Tyrophagus putrescentiae [4] = experiment: Toxicity, indirect contact (inhalation, 24 hours)
# Protocol: as §1, §2, §3, §4, §5
# Acarus siro [5] = experiment: Toxicity, direct contact
# Protocol: (§6) FIGS. 11A-11D are sets of graphs showing the percentage of dead mites after direct contact with different doses of lavandulol (at a dilution of 10^−6, 0.184 of pure solution or 0.5 μL of pure solution) or water (Ctrl) for different time of exposure. Four species of mites were tested: Dermatophagoides pteronyssinus (FIG. 11A), Dermatophagoides farinae (FIG. 11B), Tyrophagus putrescentiae (FIG. 11C) and Acarus siro (FIG. 11D).
# as §2
# (§7) For this experiment, for each of the four species, a group of mites (10<n<25) was placed in a Petri dish in direct contact with the substance to test. To directly contact mites with the substance, a piece of paper filter (5×1 cm) impregnated with lavandulol at various concentration (10 μL of a 10^−6 dilution, 0.18 μL of pure solution and 0.5 μL of pure solution, corresponding respectively to 8.8 ng, 0.15 mg or 0.417 mg of lavandulol), or with a neutral solution, was placed in the Petri dish. The dish was then closed with Parafilm●.
# (§8) After a determined time (15 min, 1 hour or 24 hours), the number of dead mites were counted as previously described.
# Dermatophagoides farinae [6] = experiment: Toxicity, direct contact
# Protocol: as §6, §2, §7, §8
# [7] = test system: Dermatophagoides pteronyssinus; experiment: Toxicity, direct contact
# Protocol: as §6, §2, §7, §8
# Tyrophagus putrescentiae [8] = experiment: Toxicity, direct contact
# Protocol: as §6, §2, §7, §8
# [9] = pure lavandulol volumes of 3 μL and 8 μL
# [10] = 10^−6 dilution (10 μL), 15 min, 1 hour or 24 hours
# [11] = pure solutions (0.18 μL and 0.5 μL), after 1 hour
# [12] = pure solutions (0.18 μL and 0.5 μL), after 24 hours
smiles,measurement,setting,value
"C=C(C)C(CO)CC=C(C)C (stereo not shown) [Lavandulol, 5-Methyl-2-prop-1-en-2-ylhex-4-en-1-ol]",mortality of mites by inhalation,Acarus siro [1]; lavandulol volume of 0.18 μL,not lethal
same,mortality of mites by inhalation,Acarus siro [1]; [9],high mortality
same,mortality of mites by inhalation,Dermatophagoides farinae [2]; lavandulol volume of 0.18 μL,not lethal
same,mortality of mites by inhalation,Dermatophagoides farinae [2]; [9],high mortality
same,mortality of mites by inhalation,[3]; lavandulol volume of 0.18 μL,not lethal
same,mortality of mites by inhalation,[3]; [9],high mortality
same,mortality of mites by inhalation,Tyrophagus putrescentiae [4]; lavandulol volume of 0.18 μL,not lethal
same,mortality of mites by inhalation,Tyrophagus putrescentiae [4]; [9],high mortality
same,death of mites by contact,Acarus siro [5]; [10],doesn't cause death of mites
same,mites died by contact,Acarus siro [5]; [11],97%
same,death of mites by contact,Dermatophagoides farinae [6]; [10],doesn't cause death of mites
same,death of mites by contact,Dermatophagoides farinae [6]; [11],lead to mites' death
same,death of mites by contact,Dermatophagoides farinae [6]; [12],all mites being died
same,death of mites by contact,[7]; [10],doesn't cause death of mites
same,death of mites by contact,[7]; [11],lead to mites' death
same,death of mites by contact,[7]; [12],all mites being died
same,death of mites by contact,Tyrophagus putrescentiae [8]; [10],doesn't cause death of mites
same,death of mites by contact,Tyrophagus putrescentiae [8]; [11],lead to mites' death
same,death of mites by contact,Tyrophagus putrescentiae [8]; [12],all mites being died
